Assay results: patent US12521342B2, “Fast disintegrating tablet” (CUBOPHARM PTY LTD, priority 2017, dated 2026)
Where two headings read alike, the source gives them in different places.

Assays:
[1] = cited from earlier work
[2] = pig, pH 7.4

Row | Structure (SMILES) | logP [1] | Total rosuvastatin absorbed per minute ([2]; 0.4 mg/1.5 ml) | Total rosuvastatin absorbed per minute ([2]; 0.8 mg/1.5 ml)
1 | CNCC(O)c1ccc(O)c(O)c1 (stereo not drawn) [Adrenaline] | −0.5 to −1.2 | – | –
2 | CC(C)c1nc(N(C)S(C)(=O)=O)nc(-c2ccc(F)cc2)c1/C=C/[C@@H](O)C[C@@H](O)CC(=O)O [Rosuvastatin] | – | 0.6 ng/mL | 0.3 ng/mL
